Among the data in patent publication US5569665A, “Peptidyl derivatives and their use as metalloproteinases inhibitors” (Celltech Limited, priority 1992, dated 1996) are Ki values, retold here.

SMILES strings stand for the structures. Where a name gives a salt, the structure may show the parent alone.

Common to all, as to assay type: biochemical
One test concerns the target Collagenase. The test is described as follows: Fluorimetric enzyme inhibition assay with peptide substrate (Example A), collagenase. The conditions noted are these: Ki (app) assumed to approximate true Ki; substrate approx. 20 μm, pH 7.5, overnight. Here is the method: (§1) All enzyme assays to determine Ki values were performed using the peptide substrate Dnp-Pro-Leu-Gly-Trp-Ala-D-Arg-NH2. (M. Sharon Stock and Rober D. Gray, JBC 264, 4277-81, 1989). The enzymes cleave at the Gly-Leu bond which can be followed fluorimetrically by measuring the increase in Trp fluorescence emission associated with the removal of the quenching dinitrophenol (Dnp) group.
(§2) Essentially, enzyme (e.g. gelatinase, stromelysin, coilagenase) at 0.08-2 nM; a range of inhibitor concentrations (0.1-50×Ki) and substrate (approx. 20 μm) are incubated overnight in 0.1M Tris/HCl buffer, pH 7.5, containing 0.1M NaCl, 10 mM CaCl2 and 0.05%. Brij 35 at either room temperature or 37° C. depending on the enzyme. The reaction is stopped by adjusting the pH to 4 using 0.1M sodium acetate buffer and the fluorescence read at an excitation wavelength of 280nm and emission wavelength of 346nm.
(§3) Ki values can be established using the equation for tight-binding inhibition: [formula] where Vo is the initial rate of reaction in the absence of inhibitor, Vi is the initial rate in the presence of inhibitor, [E] is the total enzyme concentration and [I] the total inhibitor concentration in the reaction mixture.
(§4) For stromelysin and collagenase, Ki (app) was assumed to approximate to the true Ki as [S]<<Km for the substrate hydrolysis. For gelatinase the Ki was determined by performing the analyses at several substrate concentrations. A plot of Ki (app) vs. [S] then gave the true Ki as the value of the y-axis intercept.

Another test concerns the target Stromelysin-1 (Homo sapiens, UniProt P08254). The test is described as follows: Fluorimetric enzyme inhibition assay with peptide substrate (Example A), stromelysin-1. As to conditions: Ki (app) assumed to approximate true Ki; substrate approx. 20 μm, pH 7.5, overnight. Here is the method:
as §1, §2, §3, §4

For another test, the target named is T1, Gelatinase -72 KD (Homo sapiens, UniProt P08253).
T1 sequence (P08253 110-660): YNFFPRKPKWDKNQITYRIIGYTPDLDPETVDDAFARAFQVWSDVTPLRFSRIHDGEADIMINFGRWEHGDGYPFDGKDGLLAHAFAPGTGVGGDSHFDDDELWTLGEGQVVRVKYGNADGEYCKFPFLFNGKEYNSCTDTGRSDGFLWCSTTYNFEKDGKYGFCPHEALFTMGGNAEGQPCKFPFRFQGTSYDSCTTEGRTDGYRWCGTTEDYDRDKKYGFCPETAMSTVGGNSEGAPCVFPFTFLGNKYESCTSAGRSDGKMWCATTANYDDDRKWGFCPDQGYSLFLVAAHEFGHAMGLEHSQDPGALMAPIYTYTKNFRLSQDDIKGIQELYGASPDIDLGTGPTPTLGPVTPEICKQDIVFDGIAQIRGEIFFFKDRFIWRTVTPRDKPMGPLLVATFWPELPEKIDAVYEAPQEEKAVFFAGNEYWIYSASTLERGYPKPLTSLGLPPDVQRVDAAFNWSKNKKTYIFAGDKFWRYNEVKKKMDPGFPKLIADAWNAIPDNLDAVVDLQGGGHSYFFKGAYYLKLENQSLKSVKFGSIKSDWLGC
The test is described as follows: Fluorimetric enzyme inhibition assay with peptide substrate (Example A), gelatinase. As to conditions: true Ki from plot of Ki (app) vs. [S], y-axis intercept; pH 7.5, overnight. Here is the method:
as §1, §2, §3, §4

Sequence of Stromelysin-1 (P08254 100-477, species assumed): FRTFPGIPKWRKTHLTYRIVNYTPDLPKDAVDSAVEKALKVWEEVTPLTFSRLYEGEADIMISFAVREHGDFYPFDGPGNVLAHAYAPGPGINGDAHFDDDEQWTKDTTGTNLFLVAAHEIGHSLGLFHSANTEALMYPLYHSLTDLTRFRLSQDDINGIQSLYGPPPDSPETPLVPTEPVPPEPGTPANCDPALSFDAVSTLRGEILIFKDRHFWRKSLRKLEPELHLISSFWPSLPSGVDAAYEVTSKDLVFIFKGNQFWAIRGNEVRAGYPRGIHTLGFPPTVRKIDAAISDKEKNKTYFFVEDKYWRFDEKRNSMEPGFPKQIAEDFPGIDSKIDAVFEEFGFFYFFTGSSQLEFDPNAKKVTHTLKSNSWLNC

As for `C[n+]1ccc(CCC[C@H](CC(=O)NO)C(=O)N[C@@H](CC2CCCCC2)C(=O)NCCc2ccccc2)cc1` [Example 6, {4-(N-hydroxyamino)-2-(R)-3-(N-methyl-4-pyridinium)propylsuccinyl}-L-β-cyclohexylalanine-N-(2-phenylethyl)amide iodide], the values for the Ki at Collagenase, on Stromelysin-1 and on Gelatinase -72 KD were 22000 nM, 681 nM and 8.42 nM, respectively.

As to `O=C(O)C[C@@H](CCOc1ccccc1)C(=O)N[C@@H](CC1CCCCC1)C(=O)NCCc1ccccc1` [Example 2], the Ki on Collagenase worked out at 48800 nM; at Stromelysin-1, 1510 nM; at Gelatinase -72 KD it was 22.2 nM.

`O=C(C[C@@H](CCCc1ccncc1)C(=O)N[C@@H](CC1CCCCC1)C(=O)NCCc1ccccc1)NO` [Example 5, {4-(N-hydroxyamino)-2(R)-(3-(4-pyridinium)propyl)succinyl}-L-β-cyclohexylalanine-N-(2-phenylethyl)amide trifluoroacetate]: the values for the Ki at Collagenase, at Stromelysin-1 and at Gelatinase -72 KD were 186 nM, 12.6 nM and 0.035 nM, respectively.

`O=C(C[C@@H](CCOc1ccccc1)C(=O)N[C@@H](CC1CCCCC1)C(=O)NCCc1ccccc1)NO` [Example 3, 4-(N-Hydroxyamino)-2-(R)-(3-(2-phenoxyethyl)succinyl)-L-β-cyclohexylalanine-N-(2-phenylethyl)amide]: the values for the Ki on Collagenase, at Stromelysin-1 and on Gelatinase -72 KD were 478 nM, 29.7 nM and 0.273 nM, respectively.

As for `NS(=O)(=O)c1ccc(CCNC(=O)[C@H](CC2CCCCC2)NC(=O)[C@H](CCCc2ccncc2)CC(=O)NO)cc1` [Example 8, {4-(N-Hydroxyamino)-2-(R)-(3-(4-pyridinium)propyl)succinyl}-L-β-cyclohexylalanine-N-(2-(p-sulphonamidophenyl)ethyl)amide trifluoroacetate], the Ki was 215 nM on Collagenase, 11.8 nM at Stromelysin-1 and 0.059 nM on Gelatinase -72 KD.
